Results reported in patent US20260283922A1, “Particles of Hydrophobic-Chain-Modified Monosaccharides and Cyclodextrin” (PARIS SCIENCES ET LETTRES, priority 2023, published 2026).

How the values were obtained:
[1] = Solubility study of ML; assay type: physicochemical; conditions: without α-CD, before stirring
Method: The solubility study of ML was carried out in water, methanol and methanol/chloroform mixture 1/1 v/v. In 10 mL glass vials, 10 mg of ML were added to 500 μL of solvent and left under magnetic stirring at 300 rpm at 25° C.

[2] = Thermogravimetric analysis; assay type: physicochemical; conditions: α-CD value at 420° C.
Method: The thermal behavior of ML/α-CD at 5 mg·mL^−1 and 70 mg·mL^−1 respectively and uncomplexed α-CD were studied using thermogravimetric analysis (FIG. 14).

Row | SMILES | solubility of ML in water [1] | residual mass percentage [2] [%]
1 | CCCCCCCCCCCCCCCCCC(=O)NCCCO[C@H]1O[C@H](CO)[C@@H](O)[C@H](O)[C@@H]1O [ML, 3-octadecanoylamino-α-D mannopyranoside] | insoluble | 
2 | OC[C@H]1O[C@@H]2O[C@H]3[C@H](O)[C@@H](O)[C@@H](O[C@H]4[C@H](O)[C@@H](O)[C@@H](O[C@H]5[C@H](O)[C@@H](O)[C@@H](O[C@H]6[C@H](O)[C@@H](O)[C@@H](O[C@H]7[C@H](O)[C@@H](O)[C@@H](O[C@H]1[C@H](O)[C@H]2O)O[C@@H]7CO)O[C@@H]6CO)O[C@@H]5CO)O[C@@H]4CO)O[C@@H]3CO [α-CD, alpha-cyclodextrin] |  | 0
